Data reported in patent US20050064510A1, “Ligand analysis” (priority 2003, published 2005).

Assays:
Serine Kinase Zap-70 = biological target: T1, Serine Kinase Zap-70 (Homo sapiens, UniProt P43403); test: AS-MS dissociation kinetics after quench with excess Staurosporine; format: binding; settings: read-out: Dissociation rate ks2 (converted)
T1 sequence (P43403 1-619): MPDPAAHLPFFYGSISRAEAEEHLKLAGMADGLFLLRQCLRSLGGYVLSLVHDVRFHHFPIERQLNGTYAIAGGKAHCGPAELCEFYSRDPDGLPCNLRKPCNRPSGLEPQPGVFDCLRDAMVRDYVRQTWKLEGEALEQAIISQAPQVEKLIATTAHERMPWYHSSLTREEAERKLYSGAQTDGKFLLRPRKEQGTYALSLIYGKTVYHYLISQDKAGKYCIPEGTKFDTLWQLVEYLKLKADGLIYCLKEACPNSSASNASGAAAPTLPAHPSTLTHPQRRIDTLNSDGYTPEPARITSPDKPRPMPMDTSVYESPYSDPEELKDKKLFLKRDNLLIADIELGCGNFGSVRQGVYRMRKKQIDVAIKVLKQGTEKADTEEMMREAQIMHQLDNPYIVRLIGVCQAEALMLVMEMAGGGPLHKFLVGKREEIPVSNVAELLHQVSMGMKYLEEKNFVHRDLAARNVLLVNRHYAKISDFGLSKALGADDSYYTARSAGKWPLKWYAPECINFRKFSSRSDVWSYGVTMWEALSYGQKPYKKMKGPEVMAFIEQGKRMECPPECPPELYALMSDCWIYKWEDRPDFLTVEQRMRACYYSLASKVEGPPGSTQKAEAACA
Method: A mixture of 9 μM Zap-70 and 1 μM NGD-6380 is prepared and incubated at room temperature for 30 minutes, a time sufficient for the mixture to reach equilibrium of bound and unbound components. […] The resulting dissociation of NGD-6380 is measured over time at intervals of 20, 30, 40, 60, 70, 80, and 100 minutes. The dissociation of NGD-6380 is measured in the following manner. […] Any amount of NGD-6380 which is not bound to the Zap-70 is separated from the Zap-70-NGD-6380 complex by the size exclusion step. […] Thus, the dissociation of […] is seen by the decreasing amount of the signal response of the NGD-6380 over time. The decrease in the signal response of the NGD-6380 is plotted as a function of time and the experimental data is fit to the exponential decay function of formula (XVIII) using the program Mathematical (Wolfram Research Inc., version 4.1). [ES]=[ES]0e^-ks2·t formula (XVIII) A mixture of 9 μM Zap-70 and 1 μM of a mixture of the ligands depicted in Table 3 is prepared and incubated at room temperature for 30 minutes, a time sufficient for the mixture to reach equilibrium of bound and unbound components. […] The decrease in the signal response of the ligands is plotted as a function of time and the experimental data is fit to the exponential decay function of formula (XVIII) using the program Mathematica®. [ESi]=[[…] formula (XVIII)

[1] = biological target: T2, muscarinic acetylcholine receptor M2 (Cavia porcellus, UniProt H0VRN8); test: Tissue-based assay for M2 antagonism
T2 sequence (H0VRN8 1-466): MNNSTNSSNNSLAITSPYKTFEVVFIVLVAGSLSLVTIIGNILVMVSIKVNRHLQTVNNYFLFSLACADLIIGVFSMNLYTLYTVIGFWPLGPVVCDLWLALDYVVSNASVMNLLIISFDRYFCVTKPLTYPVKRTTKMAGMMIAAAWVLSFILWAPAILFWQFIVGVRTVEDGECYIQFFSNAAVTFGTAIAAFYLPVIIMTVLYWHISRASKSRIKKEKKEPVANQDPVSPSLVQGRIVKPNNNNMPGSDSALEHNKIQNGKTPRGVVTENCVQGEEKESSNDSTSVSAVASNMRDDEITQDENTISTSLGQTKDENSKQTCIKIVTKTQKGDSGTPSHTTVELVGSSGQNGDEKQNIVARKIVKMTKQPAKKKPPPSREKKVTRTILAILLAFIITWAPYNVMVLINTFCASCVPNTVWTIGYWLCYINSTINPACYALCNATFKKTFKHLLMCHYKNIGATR

koff (Serine Kinase Zap-70) [s⁻¹] | activity in tissue [1] | Compound
0.000107 |  | O=C(c1cc(NCc2ccc(C(F)(F)F)cc2)nc2ccc(-c3ccc4c(c3)OCCO4)cc12)N1CCC[C@H]1CN1CCCC1 [NGD-6862]
6.5e-05 |  | CCN(Cc1ccccc1)c1cc(C(=O)N2CCC[C@H]2CN2CCCC2)c2cc(-c3ccc4c(c3)OCO4)ccc2n1 [NGD-6423]
0.000117 |  | CN(Cc1ccc(Cl)c(Cl)c1)c1cc(C(=O)N2CCC[C@H]2CN2CCCC2)c2cc(-c3ccc4c(c3)OCO4)ccc2n1 [NGD-6432]
0.000493 |  | O=C(c1cc(NCc2cccc(F)c2)nc2ccc(-c3ccc4c(c3)OCO4)cc12)N1CCC[C@H]1CN1CCCC1 [NGD-6367]
0.000275 |  | O=C(c1cc(NCc2ccc(Cl)cc2)nc2ccc(-c3ccc4c(c3)OCO4)cc12)N1CCC[C@H]1CN1CCCC1 [NGD-6371]
 | significant activity | O=C(N[C@H]1CCCC[C@@H]1OCc1ccccc1)c1coc(-c2ccc(C(=O)N3CCC(N4CCCC4)CC3)cc2)n1 [NGD-3350]
0.000117 |  | CN(Cc1ccccc1)c1cc(C(=O)N2CCC[C@H]2CN2CCCC2)c2cc(-c3ccc4c(c3)OCO4)ccc2n1 [NGD-6073]
0.000138 |  | O=C(c1cc(NCc2ccc(C(F)(F)F)cc2)nc2ccc(-c3ccc4c(c3)OCO4)cc12)N1CCC[C@H]1CN1CCCC1 [NGD-6380]
0.00021 |  | CC(CNc1cc(C(=O)N2CCC[C@H]2CN2CCCC2)c2cc(-c3ccc4c(c3)OCO4)ccc2n1)c1ccccc1 (stereo partly drawn) [NGD-6390]
